Assay type in all cases: cell-based
One experiment has as its system NCI-H526 cell line. Description: Cell viability assay for NCI-H526 cell line (EZ-Cytox). The note with it: Homo sapiens, NCI-H526, 120 h; H526 cells, 5 days, 3000 nM to 0.46 nM. As for the experimental part:
(§1) 3. Cell Viability Assay for NCI-H69, NCI-H526 Cell Lines
(§2) (1) Culture of NCI-H69, NCI-H526 Cell Lines
(§3) The NCI-H69 (hereafter H69) and NCI-H526 (hereafter H526) cell lines were purchased from KCLB.
(§4) (2) Treatment of Compounds of the Present Invention and Method of Cell Viability Assay
(§5) After treating the compound to each well to make the total volume of 200 μl, it was cultured in a CO2 incubator (Thermo Fisher Scientific) for 5 days. […] The absorbance of the completely cultured sample was measured by setting the wavelength of a plate reader (BMG Labtech) to […], and was measured after shaking for 3 minutes in a plate reader before measurement.
(§6) The results of cell viability for H526 and H69 cell line are shown in Table 3 and Table 4, respectively.
(§7) In Table 3 and Table 4, Activity represents IC50 value of each Exemplary Compound treatment group to H526 and H69 cell line, respectively (A: <30 nM, B: <50 nM, C: <100 nM, D: <200 nM, E: <400 nM).

Another experiment has as its system NCI-H69 cell line. Description: Cell viability assay for NCI-H69 cell line (EZ-Cytox). As to conditions: Homo sapiens, NCI-H69, 120 h; H69 cells, 5 days, 3000 nM to 0.46 nM. As to the method: as §1, §2, §3, §4, §5, §6, §7
The subject of the next experiment is MRC-5 cell line. Nature of the experiment: Cell viability assay for MRC-5 cell line (EZ-Cytox). The note with it: Homo sapiens, MRC5, 120 h; MRC-5 normal cell line, 5 days, 10000 nM to 1.52 nM; read-out: Activity: IC50 value, cell viability, MRC-5 cell line (Exemplary Compounds). As to the method: 4. Cell Viability Assay for MRC-5 Cell Line
(1) Culture of MRC-5 Cell Line
The MRC-5 cell line was purchased from KCLB. Passage of cultured cells was maintained within P15.
(2) Treatment of Compounds of the Present Invention
Then, it was cultured in 37° C. CO2 incubator (Thermo Fisher Scientific) for 5 days.
(3) Cytotoxicity Experiment
CO2 incubator for 4 hours.

The next experiment concerns the target T1, PLK1 (Homo sapiens, UniProt P53350).
T1 construct: endogenous in cells; host or cells: HeLa LgBit (Plk1-HiBit KI): HeLa stably expressing LgBit, with a CRISPR/Cas9 knock-in of HiBit at the endogenous PLK1 locus
Description: Luciferase assay for PLK1 in HeLa LgBit (Plk1-HiBit KI) cell line. As to conditions: 300 nM compound, luminescence after 9 hours. As for the experimental part: 2. Luciferase Assay for PLK1
(1) Preparation and Culture of HeLa LgBit (Plk1-HiBit KI) Cell Line
A HeLa cell line in which the LgBit vector was transfected and expressed stably was prepared. Then, after constructing gRNA and donor to express the HiBit amino acid sequence behind the C-terminal of the PLK1 gene, which was inherent in the cell, it was inserted into the cell together with a vector capable of expressing CRISPR/Cas9. Only the cells in which the insertion was completed and knock-in had progressed were selected, sub-cultured and used.
For cell culture, DMEM (Gibco), FBS (Gibco), PS (Gibco), […] cell culture dish (SPL), […] cell culture dish (SPL), 96-well culture plate (SPL), PBS pH 7.4 (Gibco), TrypLE™ Express (Gibco), Cell counter (Thermo Fisher Scientific) and 0.4% Trypan Blue Solution (DYNEBIO) were used.
(2) Treatment of Compounds of the Present Invention and Method of Luciferase Assay
In the case of HeLa LgBit (Plk1-HiBit KI), the compounds were treated after being released after thymidine block, and the process was as follows. Thymidine (Sigma-Aldrich) was completely dissolved in ddH2O and used in the experiment. For thymidine block, the products were treated with 2 mM of thymidine and then incubated for 24 hours. For release and chemical treatment, the medium was suctioned and washed with 1×PBS. TrypLE™ (Gibco) was added and incubated in 37° C. CO2 incubator (Thermo Fisher Scientific) for 5 mins. Cells neutralized by adding complete media were counted through a counter. For each well of a 96-well culture plate (SPL), 3.3×10^4 cells and a total medium volume of 150 μl were seeded and incubated in a CO2 incubator.
Each cell line was incubated in a CO2 incubator for 18 hours, and Endurazine (Promega, Cat. No. N257B) was added to each well to make up 4% of the total volume. After adding compounds of Examples in a 96-well white plate (SPL) to a concentration of 300 nM, the wavelength of the plate reader (BMG Labtech, CLARIOstar Plus) was set to 470-480 nm, and then the luminescence was tracked in real time.
In Table 2, Activity represents the ratio of the luminescence value of each Exemplary Compound treatment group to DMSO treatment group (+++: <0.3, ++: <0.5, +: <0.7).
In general terms: With HiBiT, luminescence reflects the tagged protein that the partner subunit can reach.

Molecules are shown by their SMILES.

By IC50 is commonly meant the concentration needed to halve the response being measured.

T1 sequence (P53350 whole entry): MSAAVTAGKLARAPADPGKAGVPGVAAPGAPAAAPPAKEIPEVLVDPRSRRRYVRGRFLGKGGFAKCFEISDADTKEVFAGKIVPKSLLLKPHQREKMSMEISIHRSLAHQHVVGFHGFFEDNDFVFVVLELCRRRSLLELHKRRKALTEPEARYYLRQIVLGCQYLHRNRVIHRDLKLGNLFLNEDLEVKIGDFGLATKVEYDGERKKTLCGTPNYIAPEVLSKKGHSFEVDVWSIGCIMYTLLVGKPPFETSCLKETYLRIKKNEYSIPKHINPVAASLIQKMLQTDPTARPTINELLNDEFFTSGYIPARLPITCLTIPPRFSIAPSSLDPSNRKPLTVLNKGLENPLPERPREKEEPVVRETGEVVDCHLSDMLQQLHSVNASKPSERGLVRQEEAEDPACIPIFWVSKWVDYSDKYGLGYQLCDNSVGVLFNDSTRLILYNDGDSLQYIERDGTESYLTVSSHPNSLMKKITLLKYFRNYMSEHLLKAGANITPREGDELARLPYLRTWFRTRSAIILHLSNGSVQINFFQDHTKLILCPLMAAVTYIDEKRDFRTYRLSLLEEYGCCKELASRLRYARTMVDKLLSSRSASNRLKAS

In the case of `COc1cc(C(=O)NN2C[C@@H]3[C@@H](CCN4CCN(c5ccc(NC6CCC(=O)NC6=O)cc5)CC4)[C@@H]3C2)ccc1Nc1ncc2c(n1)N(C(C)C)CC(F)(F)C(=O)N2C` (stereo partly drawn) [Compound 25, 4-((7,7-difluoro-9-isopropyl-5-methyl-6-oxo-6,7,8,9-tetrahydro-5H-pyrimido[4,5-b][1,4]diazepin-2-yl)amino)-N-((1R,5S,6s)-6-(2-(4-(4-((2,6-dioxopiperidin-3-yl)amino)phenyl)piperazin-1-yl)ethyl)-3-azabicyclo[3.1.0]hexan-3-yl)-3-methoxybenzamide], the figures for the IC50 in the experiment on NCI-H526 cell line, in the experiment on NCI-H69 cell line and in the experiment with MRC-5 cell line were below 30 nM, below 100 nM and above 10000 nM, respectively. For the same compound, at PLK1, the “Activity: ratio of the luminescence value of compound treatment group to DMSO treatment group” value (“Activity: ratio” below) is “++ (++: <0.5)”.
For `COc1cc(C(=O)NC2CCN(CCC3CCN(c4cc(OC)c(NC5CCC(=O)NC5=O)cc4F)CC3)CC2)c(F)cc1Nc1ncc2c(n1)N(C(C)C)CC(F)(F)C(=O)N2C` (stereo not drawn) [Compound 50, 4-((7,7-difluoro-9-isopropyl-5-methyl-6-oxo-6,7,8,9-tetrahydro-5H-pyrimido[4,5-b][1,4]diazepin-2-yl)amino)-N-(1-(2-(1-(4-((2,6-dioxopiperidin-3-yl)amino)-2-fluoro-5-methoxyphenyl)piperidin-4-yl)ethyl)piperidin-4-yl)-2-fluoro-5-methoxybenzamide] the same measures were below 50 nM, below 100 nM, above 10000 nM and “++ (++: <0.5)”.
With `COc1cc(C(=O)NN2CCC(CCN3CCN(c4cc(F)c(NC5CCC(=O)NC5=O)cc4F)CC3)CC2)c(F)cc1Nc1ncc2c(n1)N(C(C)C)CC(F)(F)C(=O)N2C` (stereo not drawn) [Compound 60, 4-((7,7-difluoro-9-isopropyl-5-methyl-6-oxo-6,7,8,9-tetrahydro-5H-pyrimido[4,5-b][1,4]diazepin-2-yl)amino)-N-(4-(2-(4-(4-((2,6-dioxopiperidin-3-yl)amino)-2,5-difluorophenyl)piperazin-1-yl)ethyl)piperidin-1-yl)-2-fluoro-5-methoxybenzamide], the IC50 with NCI-H526 cell line is below 50 nM; with NCI-H69 cell line, below 50 nM; with MRC-5 cell line, above 10000 nM. Further, the “Activity: ratio” value on PLK1 is “++ (++: <0.5)”.
On to `COc1cc(C(=O)NC2CCC(N(C)CC3CCN(c4cnc(C5CCC(=O)NC5=O)cc4C)CC3)CC2)ccc1Nc1ncc2c(n1)N(C(C)C)CC(F)(F)C(=O)N2C` (stereo not drawn) [Compound 15, 4-((7,7-difluoro-9-isopropyl-5-methyl-6-oxo-6,7,8,9-tetrahydro-5H-pyrimido[4,5-b][1,4]diazepin-2-yl)amino)-N-((1r,4r)-4-(((1-(6-(2,6-dioxopiperidin-3-yl)-4-methylpyridin-3-yl)piperidin-4-yl)methyl)(methyl)amino)cyclohexyl)-3-methoxybenzamide], for which the IC50 in the experiment with NCI-H526 cell line was below 30 nM; with NCI-H69 cell line, below 30 nM; in the experiment with MRC-5 cell line it was above 10000 nM. The “Activity: ratio” value on PLK1 was “+++ (+++: <0.3)”.
In the case of `COc1cc(C(=O)NC2CC3(CCN(CC4CCN(c5cc(OC)c(NC6CCC(=O)NC6=O)cc5F)CC4)CC3)C2)ccc1Nc1ncc2c(n1)N(C1CCCC1)CC(F)(F)C(=O)N2C` (stereo not drawn) [Compound 51, 4-((9-cyclopentyl-7,7-difluoro-5-methyl-6-oxo-6,7,8,9-tetrahydro-5H-pyrimido[4,5-b][1,4]diazepin-2-yl)amino)-N-(7-((1-(4-((2,6-dioxopiperidin-3-yl)amino)-2-fluoro-5-methoxyphenyl)piperidin-4-yl)methyl)-7-azaspiro[3.5]nonan-2-yl)-3-methoxybenzamide], the values for the IC50 in the experiment on NCI-H526 cell line, in the experiment on NCI-H69 cell line and in the experiment on MRC-5 cell line were below 30 nM, below 30 nM and above 10000 nM, respectively. Also, the “Activity: ratio” value on PLK1 is listed as “+++ (+++: <0.3)”.
Consider `COc1cc(C(=O)NC2CC3(CCN(CC4CCN(c5ccc(NC6CCC(=O)NC6=O)c(F)c5)CC4)CC3)C2)ccc1Nc1ncc2c(n1)N(C1CCCC1)CC(F)(F)C(=O)N2C` (stereo not drawn) [Compound 36, 4-((9-cyclopentyl-7,7-difluoro-5-methyl-6-oxo-6,7,8,9-tetrahydro-5H-pyrimido[4,5-b][1,4]diazepin-2-yl)amino)-N-(7-((1-(4-((2,6-dioxopiperidin-3-yl)amino)-3-fluorophenyl)piperidin-4-yl)methyl)-7-azaspiro[3.5]nonan-2-yl)-3-methoxybenzamide], for which the results for the IC50 in the experiment with NCI-H526 cell line, in the experiment with NCI-H69 cell line and in the experiment on MRC-5 cell line were below 30 nM, below 50 nM and above 10000 nM, respectively. Further, the “Activity: ratio” value on PLK1 is given as “+++ (+++: <0.3)”.
For `COc1cc(C(=O)NN2CCC(CCN3CCN(c4cc(OC)c(NC5CCC(=O)NC5=O)cc4F)CC3)CC2)ncc1Nc1ncc2c(n1)N(C1CCCC1)CC(F)(F)C(=O)N2C` (stereo not drawn) [Compound 47, 5-((9-cyclopentyl-7,7-difluoro-5-methyl-6-oxo-6,7,8,9-tetrahydro-5H-pyrimido[4,5-b][1,4]diazepin-2-yl)amino)-N-(4-(2-(4-(4-((2,6-dioxopiperidin-3-yl)amino)-2-fluoro-5-methoxyphenyl)piperazin-1-yl)ethyl)piperidin-1-yl)-4-methoxypicolinamide], in that order: below 50 nM, below 50 nM, above 10000 nM and “++ (++: <0.5)”.
For `COc1cc(-c2nnc(CN3CCC(CCN4CCN(c5cc(F)c(NC6CCC(=O)NC6=O)cc5F)CC4)CC3)o2)ccc1Nc1ncc2c(n1)N(C1CCCC1)CC(F)(F)C(=O)N2C` (stereo not drawn) [Compound 65, 3-((4-(4-(2-(1-((5-(4-((9-cyclopentyl-7,7-difluoro-5-methyl-6-oxo-6,7,8,9-tetrahydro-5H-pyrimido[4,5-b][1,4]diazepin-2-yl)amino)-3-methoxyphenyl)-1,3,4-oxadiazol-2-yl)methyl)piperidin-4-yl)ethyl)piperazin-1-yl)-2,5-difluorophenyl)amino)piperidine-2,6-dione] the same measures were below 100 nM, below 200 nM, above 10000 nM and “++ (++: <0.5)”.
`COc1cc(C(=O)NN2CCC(CCN3CCN(c4cc(F)c(NC5CCC(=O)NC5=O)cc4F)CC3)CC2)c(F)cc1Nc1ncc2c(n1)N(C1CCCC1)CC(F)(F)C(=O)N2C` (stereo not drawn) [Compound 59, 4-((9-cyclopentyl-7,7-difluoro-5-methyl-6-oxo-6,7,8,9-tetrahydro-5H-pyrimido[4,5-b][1,4]diazepin-2-yl)amino)-N-(4-(2-(4-(4-((2,6-dioxopiperidin-3-yl)amino)-2,5-difluorophenyl)piperazin-1-yl)ethyl)piperidin-1-yl)-2-fluoro-5-methoxybenzamide]: the IC50 was below 30 nM in the experiment with NCI-H526 cell line, below 50 nM in the experiment on NCI-H69 cell line and above 10000 nM in the experiment on MRC-5 cell line. Besides, the “Activity: ratio” value on PLK1 is “++ (++: <0.5)”.
